Source: US20210017499A1, “SILOXANE POLYMER-BASED CANCER STEM CELL PREPARATION METHOD” (KOREA ADVANCED INSTITUTE OF SCIENCE AND TECHNOLOGY, priority 2019, published 2021)

Tests used:
Experiment in all cases: Cell viability for doxorubicin (WST-1)
Assay type in all cases: cell-based, human
[1] = system: ssiCSC (SKOV3, MCF-7, Hep3B and SW480); details: Dox of 50 μM, 24 hours, vs 2D control group
Experimental: (§1) ssiCSC spheroids prepared from different kinds of cancer cells (SKOV3, MCF-7, Hep3B and SW480) were isolated using trypsin (TrypLE Express, Gibco), and the isolated cells were washed with D-PBS twice. The ssiCSC was plated on a 96-well plate (1×10^4 cells/well) and was cultured in a cell growth medium at 37° C. for 24 hours. Then, the medium was removed, and a new medium comprising various concentrations of doxorubicin was added to each well and cultured for 24 hours. Next, each well was washed with D-PBS and was replaced with a new cell growth medium of 100 μl, and then WST-1 cell proliferation reagent (Roche) of 10 μl was added and cultured for 4 hours. Then, the absorbance at 450 nm (standard wavelength, 600 nm) was measured using a microplate reader (Molecular Devices).
(§2) In addition, the drug resistance of ssiCSC for doxorubicin (DOX) known as an anti-cancer agent was confirmed. Specifically, ssiCSC spheroids prepared by culturing on the pV4D4 surface for 8 days were isolated to single cells, and the cell was cultured on the conventional TCP surface to a 2D single layer, and then DOX at various concentrations was treated for 24 hours.

SW480-ssiCSC = system: SW480-ssiCSC
Experimental: as §1, §2

SKOV3-ssiCSC = details: DOX at various concentrations, 24 hours
Experimental: as §1, §2

## COc1cccc2c1C(=O)c1c(O)c3c(c(O)c1C2=O)C[C@@](O)(C(=O)CO)C[C@@H]3O[C@H]1C[C@H](N)[C@H](O)[C@H](C)O1 [Dox, doxorubicin]
[1]
  drug resistance (cell viability): higher resistance
SW480-ssiCSC; DOX at various concentrations, 24 hours
  drug resistance (cell viability): complete resistance
SW480-ssiCSC; subcultured on the TCP surface twice
  drug resistance after subculture: maintained drug resistance
SW480-ssiCSC; vs control group cancer cells without DOX
  cell viability: higher cell viability than the cancer cells of the control group in which DOX was not treated
SKOV3-ssiCSC
  drug resistance (cell viability): complete resistance
